Assays:
healthy participants [1] = assay: Phase 1 cross-over study, ambulatory blood pressure monitoring (ABPM); type: in vivo, human; details: for DBP: Change >10 and absolute value >80 mmHg, observations / SBP: Change >10 and absolute value >130 mmHg, observations: 300-400 mg repeat dose; for BIIB074-Placebo difference in change of 24 h average DBP / BIIB074-Placebo difference in change of 24 h average SBP / LS Mean change in 24 h average DBP from baseline / LS Mean change in 24 h average SBP from baseline: outpatient
Protocol: (§1) This was a Phase 1, randomized, double-blind, placebo-controlled, repeat dose, 2-period cross-over study to investigate the effect of BIIB074 300-400 mg bid on ambulatory blood pressure (ABP) in healthy participants (FIG. 2). The study comprised: screening (to occur a maximum of 30 days before the first baseline assessment); two 36-day treatment periods, each preceded by a baseline visit and separated by a 7-day washout (to minimize possible carry over effects); and a follow-up period of 7-14 days after last dose. Prior to this study, no females had received BIIB074; for this reason, a single dose BIIB074 session at the dose level of 400 mg was also conducted in female participants one week prior to the period 1 baseline visit. Following this session, some participants were predicted to exceed the predefined PK limit (area under the plasma concentration-time curve [AUC] 97 μg·h/mL) when receiving 400 mg bid at steady state. Therefore, in the subsequent phases of the study, all female participants received a lower dose of 300 mg bid (males received 400 mg bid).
Participants were assigned to treatment sequences in accordance with a randomization schedule generated by Discovery Biometrics, prior to the start of the study, using validated software. Study treatment was BIIB074 400 mg bid for males/300 mg bid for females, or placebo, for 36 days. Prior to dosing, volunteers were randomized into one of the following treatment sequences, BIIB074 (period 1):placebo (period 2) or placebo (period 1):BIIB074 (period 2), and more specifically AB and BA if male and CAB and CBA if female, where A=placebo, B=BIIB074 400 mg bid in males and 300 mg bid in females, C=BIIB074 400 mg single dose in females. Randomization numbers were assigned by the site ensuring there was a balance of sequences (AB/BA and CAB/CBA) in each group. Periods 1 and 2 were double-masked to patients and study personnel.
The primary endpoint was change in 24 h average SBP and DBP from baseline to day 36 as determined by ABPM. Secondary outcome measures included: change in 24 h average SBP and DBP from baseline to days 4 and 15; change in average SBP and DBP within a 12 h dosing interval from baseline to days 14 and 35 (inpatient); change in 24 h average ambulatory heart rate from baseline to days 4, 15 and 36; proportion of participants whose 24 h SBP and DBP increased by <5, 5-9, 10-14, 15-19, and >20 mm Hg compared with baseline; PK parameters of BIIB074 following a single oral dose in healthy female participants, and following repeated oral doses given twice daily to healthy male and female participants; PK/pharmacodynamic (PD) analyses to examine the correlation between ABP and plasma levels and/or metrics of the systemic exposure of BIIB074.
ABP was collected over 24 hours on an outpatient basis at baseline and at days 4, 15 and 36, and over 12 hours on an inpatient basis at baseline, and at days 14 and 35. The ABPM device was placed on the non-dominant arm (except in clinical situations that prohibited measuring BP in the non-dominant arm). BP and heart rate were measured every 15 minutes.
Non-inferiority was based on the one-sided 95% confidence interval (CI) for BIIB074-placebo excluding an effect of >5 mmHg in SBP or DBP. It was planned to recruit approximately 60 participants in order to obtain a minimum of 48 evaluable for ABPM during the repeat dose phase, for at least 90% power, assuming a within-subject standard deviation (SDw) of 8.21 mmHg.
ABPM data were analyzed using a repeated measures mixed effects model, whereby fixed effects were treatment, day, treatment*day, period, average baseline*day, period adjusted baseline*day, sex and treatment*sex; random effect was subject; and repeated effect was day. All summary statistics were carried out using SAS 8.02 for UNIX running under the Harmonisation of Analysis and Reporting Program (HARP) environment. […]

[2] = system: rat model of inflammation (mechanical hypersensitivity); type: in vivo
Protocol: For all doses, the C Trough is higher than efficacious doses in animal model of inflammation. […] FCA1, an oral dose of 1 mg/kg was the minimal effective dose in this model. TGN (trigeminal neuralgia), PLSR (painful lumbosacral radiculopathy).
In this model, inflammation was induced by intraplantar injection of Freud Complete Adjuvant.
Mechanical hypersensitivity was then assessed using weight bearing.

healthy participants [3] = assay: Phase 1 ABPM study, safety (adverse events, ECG); type: in vivo, human
Protocol: as §1
Safety was assessed through monitoring of adverse events (AEs), vital signs, electrocardiogram (ECG), and laboratory safety tests (including clinical chemistry).
The safety population was the primary analysis population for this study and included all participants who received one or more doses of BIIB074. The PK population was defined as participants in the safety population for whom a PK sample was obtained and analyzed.

[4] = 400 mg single dose, females, N = 22
[5] = 300-400 mg bid repeat dosing, N = 54

Cl.NC(=O)[C@@H]1CC[C@H](c2ccc(OCc3ccccc3F)cc2)N1 [Example 1, (5R)-5-(4-{[(2-Fluorophenyl)methyl]oxy}phenyl)-L-prolinamide hydrochloride]
DBP: Change >10 and absolute value >80 mmHg, observations (healthy participants [1]; Day 4, outpatient 24 h): 137 (10.6%) n (%)
SBP: Change >10 and absolute value >130 mmHg, observations (healthy participants [1]; Day 4, outpatient 24 h): 116 (9.0%) n (%)
DBP: Change >10 and absolute value >80 mmHg, observations (healthy participants [1]; Day 15, outpatient 24 h): 109 (8.3%) n (%)
SBP: Change >10 and absolute value >130 mmHg, observations (healthy participants [1]; Day 15, outpatient 24 h): 95 (7.2%) n (%)
DBP: Change >10 and absolute value >80 mmHg, observations (healthy participants [1]; Day 36, outpatient 24 h): 86 (6.9%) n (%)
SBP: Change >10 and absolute value >130 mmHg, observations (healthy participants [1]; Day 36, outpatient 24 h): 63 (5.0%) n (%)
Slope of linear relationship DBP vs observed plasma concentration (healthy participants [1]; PK/PD analysis, inpatient ABPM): approximately 0.00077±0.00012 mmHg/(ng/mL)
Slope of linear relationship SBP vs observed plasma concentration (healthy participants [1]; PK/PD analysis, inpatient ABPM): ~0.00056±0.00013 mmHg/(ng/mL)
Average increase of SBP with plasma concentration (healthy participants [1]; PK/PD analysis, over the 24 h interval): < 2 mmHg
Upper bound of one-sided 95% CI for BIIB074-placebo (healthy participants [1]; SBP on day 4, outpatient): ~2.2 mmHg
Inpatient 12 h ABPM, difference to placebo (healthy participants [1]; after 36 days of therapy): no significant differences
Increase in outpatient 24 h SBP or DBP (healthy participants [1]; day 36, distribution of individual changes): no evidence to suggest a significant increase
Observations with DBP increase >10 mmHg and absolute value >80 mmHg (healthy participants [1]; day 36, outpatient): 6.9%
Observations with SBP increase >10 mmHg and absolute value >130 mmHg (healthy participants [1]; day 36, outpatient): 5.0%
Observations with increase from baseline in SBP>30 mmHg (healthy participants [1]; day 36, outpatient 24 h (0%)): 4/1249
Observations with increase from baseline in DBP>20 mmHg (healthy participants [1]; day 36, outpatient 24 h (3%)): 35/1249
Increase in change from baseline for SBP, DBP, and heart rate (healthy participants [1]; inpatient ABPM, days 14 and 35): 2.0-2.5 mmHg/bpm
Upper bound of one-sided 95% CI for BIIB074-placebo (healthy participants [1]; majority of SBP and DBP comparisons on days 4, 15, 36): < 2 mmHg
Non-inferiority to placebo, outpatient 24 h SBP and DBP (healthy participants [1]; one-sided 95% CI excluding effect >5 mmHg): Non-inferiority of BIIB074 compared to placebo was demonstrated
BIIB074-Placebo difference in change of 24 h average DBP (healthy participants [1]; Day 4): 0.789 mmHg
BIIB074-Placebo difference in change of 24 h average SBP (healthy participants [1]; Day 4): 1.006 mmHg
LS Mean change in 24 h average DBP from baseline (healthy participants [1]; Day 4, 300-400 mg bid): 1.856 mmHg
LS Mean change in 24 h average SBP from baseline (healthy participants [1]; Day 4, 300-400 mg bid): 2.372 mmHg
BIIB074-Placebo difference in change of 24 h average DBP (healthy participants [1]; Day 15): 0.645 mmHg
BIIB074-Placebo difference in change of 24 h average SBP (healthy participants [1]; Day 15): 0.294 mmHg
LS Mean change in 24 h average DBP from baseline (healthy participants [1]; Day 15, 300-400 mg bid): 0.907 mmHg
LS Mean change in 24 h average SBP from baseline (healthy participants [1]; Day 15, 300-400 mg bid): 0.915 mmHg
BIIB074-Placebo difference in change of 24 h average DBP (healthy participants [1]; Day 36): 0.287 mmHg
BIIB074-Placebo difference in change of 24 h average SBP (healthy participants [1]; Day 36): −0.507 mmHg
LS Mean change in 24 h average DBP from baseline (healthy participants [1]; Day 36, 300-400 mg bid): 0.201 mmHg
LS Mean change in 24 h average SBP from baseline (healthy participants [1]; Day 36, 300-400 mg bid): −0.327 mmHg
Change in SBP and DBP, outpatient and inpatient ABPM (healthy participants [1]; repeat doses for 36 days): lack of clinically relevant change
Reversal of mechanical hypersensitivity ([2]; 5 mg/kg oral): fully reversed
Human scaled equivalent total plasma exposure where robust efficacy was observed ([2]; rat, in vivo): 786 ng/mL
Severity of all AEs (healthy participants [3]; 400 mg single dose in females): mild in nature
Diarrhoea (healthy participants [3]; [4]): 0 n (%)
Dizziness (healthy participants [3]; [4]): 5 (23) n (%)
Fatigue (healthy participants [3]; [4]): 0 n (%)
Headache (healthy participants [3]; [4]): 6 (27) n (%)
Hypersensitivity (allergy symptoms) (healthy participants [3]; [4]): 0 n (%)
Nasopharyngitis (healthy participants [3]; [4]): 0 n (%)
Nausea (healthy participants [3]; [4]): 3 (14) n (%)
Oropharyngeal pain (healthy participants [3]; [4]): 0 n (%)
Pain in extremity (healthy participants [3]; [4]): 0 n (%)
Participants with any AE (healthy participants [3]; [4]): 12 (55) n (%)
Pyrexia (healthy participants [3]; [4]): 0 n (%)
Rash (healthy participants [3]; [4]): 0 n (%)
Vomiting (healthy participants [3]; [4]): 1 (5) n (%)
AEs of moderate intensity (healthy participants [3]; 300-400 mg bid repeat dose): 9 AEs
AEs of severe intensity (healthy participants [3]; 300-400 mg bid repeat dose): 2 AEs
Diarrhoea (healthy participants [3]; [5]): 1 (2) n (%)
Dizziness (healthy participants [3]; [5]): 6 (11) n (%)
Fatigue (healthy participants [3]; [5]): 2 (4) n (%)
Hypersensitivity (allergy symptoms) (healthy participants [3]; [5]): 2 (4) n (%)
Nasopharyngitis (healthy participants [3]; [5]): 6 (11) n (%)
Nausea (healthy participants [3]; [5]): 4 (7) n (%)
Oropharyngeal pain (healthy participants [3]; [5]): 2 (4) n (%)
Pain in extremity (healthy participants [3]; [5]): 0 n (%)
Participants with any AE (healthy participants [3]; [5]): 25 (46) n (%)
Pyrexia (healthy participants [3]; [5]): 2 (4) n (%)
Rash (healthy participants [3]; [5]): 1 (2) n (%)
Vomiting (healthy participants [3]; [5]): 3 (6) n (%)
Headache (healthy participants [3]; 300-400 mg bid repeat dosing, N = 54, listed as BIIB074, hydrochloride): 11 (20) n (%)
Tolerability (healthy participants [3]; 300-400 mg bid, 36 days): well tolerated
ECG changes (healthy participants [3]; day 1-35): no clinically significant ECG changes
Participants withdrawn due to AEs while on BIIB074 (healthy participants [3]; of 60 enrolled): 5 participants
Serious AEs (healthy participants [3]; whole study): No serious AEs
